Measurements from ChEMBL document CHEMBL4229486, “Design and synthesis of novel thiadiazole-thiazolone hybrids as potential inhibitors of the human mitotic kinesin Eg5” (Bioorg Med Chem Lett, 2018).
The source made the active and inactive calls. No cut-off for these calls is given here.

Tests used:
[1] = target: T1, Kinesin-like protein KIF11 (Homo sapiens) (UniProt P52732); experiment: Inhibition of basal EG5 ATPase activity (unknown origin) by pyruvate kinase/lactate dehydrogenase enzyme coupled photometric assay
T1 sequence (whole entry): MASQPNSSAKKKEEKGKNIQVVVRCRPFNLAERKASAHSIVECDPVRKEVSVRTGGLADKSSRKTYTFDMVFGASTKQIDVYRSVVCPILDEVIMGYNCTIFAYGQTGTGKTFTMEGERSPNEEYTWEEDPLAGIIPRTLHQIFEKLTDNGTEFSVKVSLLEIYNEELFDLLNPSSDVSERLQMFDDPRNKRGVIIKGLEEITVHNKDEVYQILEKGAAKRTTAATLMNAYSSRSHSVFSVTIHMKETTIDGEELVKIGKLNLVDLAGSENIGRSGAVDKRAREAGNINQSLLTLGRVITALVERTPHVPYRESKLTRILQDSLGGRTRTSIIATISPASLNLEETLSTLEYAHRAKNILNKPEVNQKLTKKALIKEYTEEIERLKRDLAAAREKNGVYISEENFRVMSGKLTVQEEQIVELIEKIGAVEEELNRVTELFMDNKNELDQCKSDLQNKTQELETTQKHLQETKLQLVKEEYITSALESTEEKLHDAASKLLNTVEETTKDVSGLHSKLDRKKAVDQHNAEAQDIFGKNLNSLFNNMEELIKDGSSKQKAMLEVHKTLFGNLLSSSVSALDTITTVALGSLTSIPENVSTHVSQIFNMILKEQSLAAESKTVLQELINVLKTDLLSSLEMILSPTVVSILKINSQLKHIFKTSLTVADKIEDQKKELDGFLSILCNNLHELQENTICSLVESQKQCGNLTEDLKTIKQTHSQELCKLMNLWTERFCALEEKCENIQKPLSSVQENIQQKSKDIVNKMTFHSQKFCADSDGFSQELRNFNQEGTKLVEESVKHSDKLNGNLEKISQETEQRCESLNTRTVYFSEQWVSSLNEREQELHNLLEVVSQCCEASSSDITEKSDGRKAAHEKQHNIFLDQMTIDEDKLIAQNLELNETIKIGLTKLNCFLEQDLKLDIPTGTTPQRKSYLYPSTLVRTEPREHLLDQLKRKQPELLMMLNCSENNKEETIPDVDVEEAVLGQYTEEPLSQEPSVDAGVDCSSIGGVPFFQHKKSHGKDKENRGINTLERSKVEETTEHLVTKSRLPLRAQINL

[2] = target: T2, Kinesin-like protein KIF11 (Homo sapiens, UniProt P52732); experiment: Inhibition of MT-stimulated EG5 ATPase activity (unknown origin) by pyruvate kinase/lactate dehydrogenase enzyme coupled photometric assay
T2 sequence (P52732 whole entry): T1 sequence (whole entry)

[3] = target: T2, Kinesin-like protein KIF11; experiment: Inhibition EG5 (unknown origin)

Compound	inhibition [1]	IC50 ([2]; read-out: IC50)	IC50 [3]	IC50 [2]
CC(=O)N1N=C(NC2=NC(=O)/C(=C/c3ccccn3)S2)SC1(C)c1ccccc1 (configuration not stated)	inactive	120 µM		
COc1ccc(/C=C/C=C2\SC(NC3=NN(C(C)=O)C(C)(c4ccccc4)S3)=NC2=O)cc1 (configuration not stated)	inactive	90 to 414 µM		
CC(=O)N1N=C(NC2=NC(=O)/C(=C/c3ccc(N(C)C)cc3)S2)SC1(C)c1ccccc1 (configuration not stated)	inactive	90 to 252 µM		
CCNCCS(=O)(=O)NC[C@@]1(c2ccccc2)SC(NC(=O)C(C)(C)C)=NN1C(=O)C(C)(C)C [LITRONESIB]			0.007 µM	
CC(=O)N1N=C(NC2=NC(=O)/C(=C/c3ccccc3F)S2)SC1(C)c1ccccc1 (configuration not stated)	inactive	70 to 133 µM		
CC(=O)C1=NN(c2cc(C)ccc2F)C[C@]1(CCCN(C)C)c1ccccc1			0.0002 µM	
CC(=O)N1N=C(NC2=NC(=O)/C(=C/c3ccccc3[N+](=O)[O-])S2)SC1(C)c1ccccc1 (configuration not stated)				Active
CC(=O)N1N=C(NC2=NC(=O)/C(=C/c3cccs3)S2)SC1(C)c1ccccc1 (configuration not stated)	inactive	133 µM		
CC(=O)N1N=C(NC2=NC(=O)/C(=C/C=C/c3ccc(N(C)C)cc3)S2)SC1(C)c1ccccc1 (configuration not stated)	inactive	129 µM		
CC1=C(C(=O)OC(C)C)C(c2ccc(Cl)cc2)n2c(s/c(=C\c3ccc(OCC(=O)O)cc3)c2=O)=N1 (configuration not stated)			4.6 µM	
CC(=O)N1N=C(NC2=NC(=O)/C(=C/C=C/c3ccccc3)S2)SC1(C)c1ccccc1 (configuration not stated)	inactive	75 to 248 µM		
CC(=O)N1N=C(NC2=NC(=O)/C(=C/c3ccco3)S2)SC1(C)c1ccccc1 (configuration not stated)	inactive	120 to 331 µM		

Results, then the compound that gave them:

inhibition [1]	IC50 ([2]; read-out: IC50)	IC50 [3]	IC50 [2]	Compound
inactive	27.5 µM			CC(=O)N1N=C(NC2=NC(=O)/C(=C/c3cccc([N+](=O)[O-])c3)S2)SC1(C)c1ccccc1 (configuration not stated)
inactive	39.2 µM			CC(=O)N1N=C(NC2=NC(=O)/C(=C/c3ccc(Br)cc3)S2)SC1(C)c1ccccc1 (configuration not stated)
inactive	13.2 µM			CC(=O)N1N=C(NC2=NC(=O)/C(=C/c3ccccc3Cl)S2)SC1(C)c1ccccc1 (configuration not stated)
inactive	42.7 µM			COc1ccc(/C=C2\SC(NC3=NN(C(C)=O)C(C)(c4ccccc4)S3)=NC2=O)cc1 (configuration not stated)
	0.8 µM			CC(=O)NC1=NN(C(C)=O)C(C)(c2ccccc2)S1 (configuration not stated)
inactive	47.8 µM			CC(=O)N1N=C(NC2=NC(=O)/C(=C/c3cccc(Cl)c3)S2)SC1(C)c1ccccc1 (configuration not stated)
inactive	51 µM			COc1cccc(/C=C2\SC(NC3=NN(C(C)=O)C(C)(c4ccccc4)S3)=NC2=O)c1 (configuration not stated)
inactive	71.9 µM			COc1cccc(/C=C2\SC(NC3=NN(C(C)=O)C(C)(c4ccccc4)S3)=NC2=O)c1OC (configuration not stated)
inactive	63.3 µM			CC(=O)N1N=C(NC2=NC(=O)/C(=C/c3ccc(C)cc3)S2)SC1(C)c1ccccc1 (configuration not stated)
inactive	60 to 112 µM			COc1ccc(/C=C2\SC(NC3=NN(C(C)=O)C(C)(c4ccccc4)S3)=NC2=O)cc1OC (configuration not stated)
inactive	106 µM			CC(=O)N1N=C(NC2=NC(=O)/C(=C/c3ccc(Cl)cc3)S2)SC1(C)c1ccccc1 (configuration not stated)
inactive	17.2 µM			CC(=O)N1N=C(NC2=NC(=O)/C(=C/c3ccc(OCc4ccccc4)cc3)S2)SC1(C)c1ccccc1 (configuration not stated)
inactive	20.2 µM			CC(=O)N1N=C(NC2=NC(=O)/C(=C/c3ccc([N+](=O)[O-])cc3)S2)SC1(C)c1ccccc1 (configuration not stated)
inactive	62.1 µM			CC(=O)N1N=C(NC2=NC(=O)/C(=C/c3ccccc3)S2)SC1(C)c1ccccc1 (configuration not stated)
